Measured values taken from patent publication US9994552B2, “Compositions useful for treating disorders related to kit” (BLUEPRINT MEDICINES CORPORATION, priority 2013, dated 2018).

Experiments:
D816V Kit = D816V Kit (Homo sapiens (Human), UniProt P10721, D816V); assay: Kit D816V assay at Km (Caliper electrophoretic mobility shift); type: biochemical; conditions: for IC50: D816V Kit 0.5 nM, 15 uM ATP (Km), 1 uM Srctide, 25 C, 90 minutes, read-out: INH-KITD816V ENZ-KM IC50 (nM) (Num); for times more potent against the D816V mutant than against the wild-type Kit: D816V Kit versus wild-type Kit, enzyme assays at Km
Experimental: (§1) In order to assess the activity of chemical compounds against the relevant kinase of interest, the Caliper LifeSciences electrophoretic mobility shift technology platform is used. Fluorescently labeled substrate peptide is incubated in the presence of kinase and ATP so that a […] proportion of the peptide is phosphorylated. At the end of the reaction, the mix of phosphorylated (product) and non-phosphorylated (substrate) peptides are passed through the microfluidic system of the Caliper EZ Reader 2, under an applied potential difference. The presence of the phosphate group on the product peptide provides a difference in mass and charge between those of the substrate peptide, resulting in a separation of the substrate and product pools in the sample. As the pools pass a LEDS within the instrument, these pools are detected and resolved as separate peaks. The ratio between these peaks therefore reflects the activity of the chemical matter at that concentration in that well, under those conditions.
(§2) The reaction was stopped by the addition of 70 ul of Stop buffer (100 mM HEPES pH 7.5, 0.015% Brij 35, 35 mM EDTA and 0.2% of Coating Reagent 3 (Caliper Lifesciences)). The plate was then read on a Caliper EZReader 2 (protocol settings: −1.9 psi, upstream voltage −700, downstream voltage −3000, post sample sip 35 s).

wild type Kit = wild type Kit (Homo sapiens (Human), UniProt P10721); assay: Kit wild type assay at Km (Caliper electrophoretic mobility shift); type: biochemical; conditions: wild type Kit 2 nM, 400 uM ATP (Km), 1 uM Srctide, 25 C, 90 minutes; read-out: INH-KITWT ENZ-KM IC50 (nM) (Num)
Experimental: as §1, §2

HMC1.2 cells = assay: HMC1.2 Proliferation Assay (CellTiter-Glo); conditions: 72 h, read-out: HMC1.2 Proliferation IC50
Experimental: 1000 HMC1.2 cells were incubated in 22 ul culture media (IMDM, 10% calf serum with Iron) in each well of a 384-well plate overnight in a tissue culture incubator (5% CO2, 37° C.). […] After 3 days incubation in tissue culture incubator, 25 ul CellTiter-Glo (Promega) solution was added to each well for ATP/cell viability measurement.
In addition, these compounds were assayed for their ability to inhibit the dependence of these cells on Kit kinase activity by disrupting their growth and proliferation.

[1] = molecular target: Kit D816V kinase activity (Kit autophosphorylation at tyrosine 719) (Homo sapiens (Human), UniProt P10721, D816V/V560G); assay: HMC1.2 Autophosphorylation Assay (AlphaLISA phospho-Y719 c-Kit)
Kit D816V kinase activity (Kit autophosphorylation at tyrosine 719), sequence (P10721 26-976 V560G/D816V): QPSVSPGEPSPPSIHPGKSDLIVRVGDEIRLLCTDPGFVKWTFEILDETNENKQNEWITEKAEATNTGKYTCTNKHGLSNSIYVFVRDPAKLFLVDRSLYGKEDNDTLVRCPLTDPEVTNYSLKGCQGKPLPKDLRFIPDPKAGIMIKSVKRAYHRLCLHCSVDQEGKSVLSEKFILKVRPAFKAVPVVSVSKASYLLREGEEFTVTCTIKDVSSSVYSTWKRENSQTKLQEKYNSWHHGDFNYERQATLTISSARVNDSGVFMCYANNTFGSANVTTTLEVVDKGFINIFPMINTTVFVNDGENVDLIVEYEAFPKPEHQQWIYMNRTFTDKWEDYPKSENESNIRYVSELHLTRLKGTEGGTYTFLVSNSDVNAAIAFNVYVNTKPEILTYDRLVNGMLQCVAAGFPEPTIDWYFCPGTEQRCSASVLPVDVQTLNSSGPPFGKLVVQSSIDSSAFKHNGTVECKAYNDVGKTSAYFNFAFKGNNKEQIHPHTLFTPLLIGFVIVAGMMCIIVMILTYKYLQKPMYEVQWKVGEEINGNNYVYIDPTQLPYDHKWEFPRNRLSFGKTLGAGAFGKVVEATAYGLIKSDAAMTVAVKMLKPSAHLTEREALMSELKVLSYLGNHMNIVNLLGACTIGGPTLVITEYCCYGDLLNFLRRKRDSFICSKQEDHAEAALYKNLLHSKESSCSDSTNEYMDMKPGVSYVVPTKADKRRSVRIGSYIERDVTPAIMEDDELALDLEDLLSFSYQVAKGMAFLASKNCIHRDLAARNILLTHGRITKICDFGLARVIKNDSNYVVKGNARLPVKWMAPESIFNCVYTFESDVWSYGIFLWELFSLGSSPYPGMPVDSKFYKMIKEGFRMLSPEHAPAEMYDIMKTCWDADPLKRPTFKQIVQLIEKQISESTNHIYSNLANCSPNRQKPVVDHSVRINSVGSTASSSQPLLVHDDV
Experimental: 10,000 HMC1.2 cells were incubated in 22 ul culture media (phenol-red free IMDM, no serum) in each well of a 384-well plate and serum starved overnight in a tissue culture incubator (5% CO2, 37° C.). […] After 90 minutes, 6 ul of 5× AlphaLISA Lysis Buffer (Perkin Elmer) supplemented with a protease and phosphatase inhibitor cocktail (Cell Signaling Technologies) was added to each well and shaken at 450 rpm for 15 minutes at 4° C. […] 10 ul of 100 ug/ml streptavidin donor beads (Perkin Elmer) were added to each well, blocked from light with aluminum adhesive and shaken at 300 rpm at room temperature for 2 hours. Fluorescence signal was obtained on Envision (Perkin Elmer) by AlphaScreen 384 well HTS protocol.

D816V Kit, sequence (P10721 26-976 D816V): as the sequence (P10721 26-976 V560G/D816V) above, with G535V counted along it
wild type Kit, sequence (P10721 26-976): as the sequence (P10721 26-976 V560G/D816V) above, with G535V, V791D counted along it

IC50 (D816V Kit) [nM]	IC50 (wild type Kit) [nM]	IC50 [1] [nM]	times more potent against the D816V mutant than against the wild-type Kit (D816V Kit)	SMILES	IC50 (HMC1.2 cells) [nM]
10 to 100	100 to 1000	–	–	COc1cc2c(N3CCN(c4ncc(Br)cn4)CC3)ncnc2cc1OCCCN1CCCC1 [Compound 107]	1000 to 10000
1.01 to 10	11 to 100	100 to 1000	–	COc1cc2ncnc(N3CCN(c4ncc(COc5ccccc5)cn4)CC3)c2cc1OC [Compound 36]	1000 to 10000
< 1	11 to 100	10 to 100	–	COc1cc2ncnc(N3CCN(c4ncc(Cc5ccccc5)cn4)CC3)c2cc1OCC1CNCCO1 (stereo not shown) [Compound 105]	100 to 1000
< 1	11 to 100	100 to 1000	–	COc1cc2ncnc(N3CCN(c4ncc(Cc5ccccc5)cn4)CC3)c2cc1OCCCN1CCN(C)CC1 [Compound 136]	1000 to 10000
10 to 100	100 to 1000	–	–	COc1ccc2ncnc(N3CCN(c4ncc(Cc5ccccc5)cn4)CC3)c2c1 [Compound 5]	1000 to 10000
1.01 to 10	11 to 100	100 to 1000	–	COc1cc2c(N3CCN(c4ncc(Nc5ccc(C)cc5)cn4)CC3)ncnc2cc1OCCCN1CCCCC1 [Compound 137]	1000 to 10000
< 1	< 10	100 to 1000	–	COc1cc2ncnc(N3CCN(c4ncc(Cc5ccccc5)c(O)n4)CC3)c2cc1OC [Compound 35]	100 to 1000
< 1	11 to 100	10 to 100	–	COc1cc2ncnc(N3CCN(c4ncc(Cc5ccccc5)cn4)CC3)c2cc1OCC1CCN(C)CC1 [Compound 112]	1000 to 10000
1.01 to 10	100 to 1000	100 to 1000	–	COc1cc2ncnc(N3CCN(c4ncc(Nc5ccccc5)cn4)CC3)c2cc1OC [Compound 13, 2-(4-(6,7-dimethoxyquinazolin-4-yl)piperazin-1-yl)-N-phenylpyrimidin-5-amine]	1000 to 10000
< 1	< 10	< 10	–	COc1cc2ncnc(N3CCN(c4ncc(Cc5ccccc5)c(N)n4)CC3)c2cc1OCC1CCN(C)CC1 [Compound 125]	100 to 1000
1.01 to 10	11 to 100	100 to 1000	–	COc1cc2c(N3CCN(c4ncc(Cc5ccccc5)cn4)CC3)ncnc2cc1OCC(O)CO (stereo not shown) [Compound 85]	1000 to 10000
< 1	< 10	1000 to 10000	–	COc1cc2ncnc(N3CCN(c4ncc(Cc5ccccc5)c(=O)[nH]4)CC3)c2cc1OCC1CNCCO1 (stereo not shown) [Compound 119]	> 10000
10 to 100	100 to 1000	–	–	COc1ccc2ncnc(N3CCN(c4ncc(Cc5ccccc5)cn4)[C@H](C)C3)c2c1 [Compound 7]	1000 to 10000
1.01 to 10	11 to 100	100 to 1000	less than 5 times	COc1cc2ncnc(N3CCN(c4ncc(Cc5ccccc5)cn4)C(C)C3)c2cc1OC (stereo not shown) [Compound 23]	1000 to 10000
< 1	11 to 100	10 to 100	–	COc1cc2ncnc(N3CCN(c4ncc(Cc5ccccc5)cn4)CC3)c2cc1OCC1CCNC(=O)C1 (stereo not shown) [Compound 109]	1000 to 10000
1.01 to 10	100 to 1000	–	–	COc1cc2ncnc(N3CCN(c4ncc(Nc5ccc(F)cc5)cn4)CC3)c2cc1OC [Compound 42]	1000 to 10000
1.01 to 10	11 to 100	10 to 100	–	COc1cc2ncnc(N3CCN(c4ncc(Cc5ccccc5)cn4)CC3)c2cc1OCC1CNC1 [Compound 79]	1000 to 10000
10 to 100	100 to 1000	–	–	COc1cc2ncnc(N3CCN(c4ncc(Cc5ccc(C(F)(F)F)cc5)cn4)CC3)c2cc1OC [Compound 88]	> 10000
1.01 to 10	11 to 100	100 to 1000	–	COc1cc2ncnc(N3CCN(c4ncc(Cc5ccccc5)cn4)CC3)c2cc1OC1CCN(C)CC1 [Compound 99]	1000 to 10000
< 1	< 10	10 to 100	–	COc1cc2c(N3CCN(c4ncc(Cc5ccccc5)cn4)CC3)ncnc2cc1OCCCN1CCN(C)CC1 [Compound 134]	100 to 1000

IC50 (D816V Kit) [nM]	IC50 (wild type Kit) [nM]	IC50 [1] [nM]	times more potent against the D816V mutant than against the wild-type Kit (D816V Kit)	SMILES	IC50 (HMC1.2 cells) [nM]
< 1	11 to 100	100 to 1000	–	COc1cc2c(N3CCN(c4ncc(Cc5ccccc5)cn4)CC3)ncnc2cc1OCCN1CCCC1=O [Compound 111]	1000 to 10000
1.01 to 10	100 to 1000	–	–	COc1cc2ncnc(N3CCN(c4ncc(Nc5ccccc5)cn4)[C@H](C)C3)c2cc1OC [Compound 30]	1000 to 10000
10 to 100	100 to 1000	1000 to 10000	–	COc1cc2c(N3CCN(c4ncc(Cc5ccccc5)cn4)CC3)ncnc2cc1OCCCN1CCCCC1 [Compound 123]	1000 to 10000
1.01 to 10	11 to 100	–	–	COc1cc2ncnc(N3CCN(c4ncc(Cc5ccccc5)cn4)CC3)c2cc1OCCN1CCNCC1 [Compound 116]	–
1.01 to 10	100 to 1000	–	–	COc1cc2ncnc(N3CCN(c4ncc(Cc5ccc(OC(F)F)cc5)cn4)CC3)c2cc1OC [Compound 86]	–
1.01 to 10	100 to 1000	–	–	COc1cc2ncnc(N3CCN(c4ncc(Sc5ccccc5)cn4)CC3)c2cc1OC [Compound 40]	–
1.01 to 10	11 to 100	–	–	COc1cc2ncnc(N3CCN(c4ncc(Cc5ccccc5)cn4)CC3)c2cc1OC1CCNC1 (stereo not shown) [Compound 80]	–
1.01 to 10	11 to 100	–	–	COc1cc2ncnc(N3CCN(c4ncc(Nc5ccc(F)cc5)cn4)CC3)c2cc1OCC1CCN(C)CC1 [Compound 132]	–
1.01 to 10	11 to 100	–	–	COc1cc2ncnc(N3CCN(c4ncc(Cc5ccccc5)cn4)CC3)c2cc1OC[C@H]1CCCN(C)C1 [Compound 115]	–
1.01 to 10	11 to 100	100 to 1000	–	COc1cc2ncnc(N3CCN(c4ncc(Cc5ccccc5)cn4)CC3)c2cc1OCC(O)CO (stereo not shown) [Compound 84]	1000 to 10000
1.01 to 10	< 10	–	–	COc1cc2ncnc(N3CCN(c4ncc(Cc5ccccc5)c(=O)[nH]4)CC3)c2cc1OCC1CN(C)CCO1 (stereo not shown) [Compound 130]	–
10 to 100	100 to 1000	–	–	COc1cc2ncnc(N3CCN(c4ncc(OC(C)c5ccccc5)cn4)CC3)c2cc1OC (stereo not shown) [Compound 63]	–
< 1	11 to 100	–	–	COc1cc2ncnc(N3CCN(c4ncc(Cc5ccccc5)cn4)CC3)c2cc1OCC1CCCNC1 (stereo not shown) [Compound 97]	–
1.01 to 10	100 to 1000	–	–	COc1cc2ncnc(N3CCN(c4ncc(Cc5ccc(C#N)cc5)cn4)CC3)c2cc1OC [Compound 45]	–
< 1	< 10	–	–	COc1cc2ncnc(N3CCN(c4ncc(Cc5ccccc5)c(N)n4)CC3)c2cc1OC[C@@H]1CCCN(C)C1 [Compound 124]	–
1.01 to 10	11 to 100	–	–	COc1cc2ncnc(N3CCN(c4ncc(Cc5ccccc5)cn4)CC3)c2cc1OCC1CCN(CCO)CC1 [Compound 139]	–
1.01 to 10	11 to 100	–	–	COc1cc2ncnc(N3CCN(c4ncc(Cc5ccc(C)cc5)cn4)C(=O)C3)c2cc1OC [Compound 22]	1000 to 10000
10 to 100	> 1000	> 10000	at least 100 times	c1ccc(Cc2cnc(N3CCN(c4ncnc5[nH]cnc45)CC3)nc2)cc1 [Compound 1]	1000 to 10000
> 100	> 1000	–	less than 5 times	COc1cc2ncnc(N3CCN(c4ncc(OCc5ccccc5)cn4)C[C@H]3C)c2cc1OC [Compound 67]	–
< 1	11 to 100	10 to 100	–	COc1cc2ncnc(N3CCN(c4ncc(Cc5ccccc5)cn4)CC3)c2cc1OCC1CCNCC1 [Compound 98]	1000 to 10000
